The test system of series [1] is TGF-β1 mediated alpha-SMA expression in primary human bronchial fibroblasts derived from IPF patients. The experiment in a line: Fibroblast to Myofibroblast Transformation (FMT) assay.
Experimental: To test the ability of compounds of the invention to inhibit the TGF-β1 dependent transition of fibroblasts to myofibroblasts in a relevant disease model of IPF, a study was carried out using an FMT assay employing lung fibroblasts from IPF patients. In this model the transition of fibroblasts to myofibroblasts is determined by the expression of the biomarker alpha smooth muscle actin (SMA).
Each drug concentration condition was evaluated in biological duplicates. One hour after compound addition, cells were stimulated with 1.25 ng/ml of TGF-01 and cultured for 72 hours thereafter. At the end of 72 hours cells were fixed using formaldehyde. The results were generated using high content imaging after staining cells using the nuclear stain DAPI as well as evaluation of the expression of alpha SMA. […] As a negative control 0.1% DMSO was used matching the DMSO concentration in treated wells.
For series [2], the system named is TGF-beta induced SMAD signaling. The series can be described thus: RDSR (RD SMAD reporter) Cellular Reporter Assay. Type of series: cell-based. Particulars: Homo sapiens, 200 pg/ml rhTGF-beta1, 24 h. The text has this:
TGF-β signaling is triggered when the activated TGF-β homodimer binds to the TGF-β receptor 2, which in turn leads to the recruitment and phosphorylation of TGF-β receptor 1 (ALK5). Activated TGF-β receptor 1 phosphorylates the signal transduction molecules SMAD2 and SMAD3. These bind to common mediator SMAD4 and translocate to the nucleus where they bind to short conserved DNA sequences called the SMAD binding element and induce the transcription of various target genes. […] Certain example compounds were also or alternatively assayed using the RDSR Cellular Reporter Assay. Overview and Design: The RD SMAD reporter (RDSR) cell line was generated by stabily integrating the SMAD cellular reporter plasmid (Promega, pGL4.48[luc2P/SBE/Hygro]) into the human rhabdomyosarcoma cell line RD (ATCC, CCL-136). Once SMAD signaling is triggered, with, for example, the addition of TGF-β 1, receptor activated SMADs bind the SMAD binding elements (SBEs) leading to the expression of intracellular luciferase. To determine the potency of compounds at inhibiting TGF-beta induced SMAD signaling, the RDSR reporter system was utilized. The rhabdomyosarcoma line RD (ATCC, CCL-136) was transfected with a SMAD reporter vector (Promega, E3671) and a polyclonal stable cell line was selected using hygromycin B. The transfected vector contains three copies of a SMAD-binding element (SBE) that drive transcription of the luciferase reporter gene luc2P (Photinus pyralis). luc2P is a synthetically-derived luciferase sequence with humanized codon optimization that is designed for high expression and reduced anomalous transcription. The luc2P gene contains hPEST, a protein destabilization sequence, which allows luc2P protein levels to respond more quickly than those of luc2 to induction of transcription. The intracellular luciferase is quantified by the addition of equal volume (100 μl) of ONE-GLO substrate (Promega, E6120) and read within ten minutes on the Envision plate reader. The stable RDSR cell line was tested by evaluating the response to human TGF-β1 (R&D Systems, 7754-BH-005) as well as human myostatin (R&D Systems, 788-G8-010/CF) in a concentration dependent manner after twenty-four hours of stimulation. […] For compound evaluation, the tool drugs Galunisertib and Vactosertib were included as positive controls. The tool drugs and the compounds of the invention being tested were all incubated with cells for one hour at 37° C. before stimulation with 200 pg/ml rhTGF-beta1 for twenty-four hours. The activity of the reporter was determined with the addition of ONE-GLO (Promega) substrate and luminescence counts collected on the Envision plate reader (Perkin Elmer). […] The activity of compounds of the invention as determined using this method are reported in the third column of Table 1, below.
For orientation: A reporter such as luciferase makes a cellular process visible.

The next series addresses ALK-5 (Homo sapiens (Human), UniProt P36897). The experiment in a line: LanthaScreen Eu Kinase Binding Assay, ALK-5. Conditions: for IC50: read-out: Kinase Inhibition: ALK5 IC50. How it is done: Activity determinations and selectivity were conducted by Thermo Fisher Scientific “SelectScreen™ Biochemical Kinase Profiling Service” using their “LanthaScreen™ Eu Kinase Binding Assay Screening” (www.thermofisher.com/selectscreen). Binding of an Alexa Fluor™ conjugate or “tracer” to a kinase is detected by addition of a Eu-labeled anti-tag antibody. Binding of the tracer and antibody to a kinase results in a high degree of FRET, whereas displacement of the tracer with a kinase inhibitor results in a loss of FRET. This assay is carried out by mixing the compound tested with the reagents and reading, no development step is required. Life Technologies' Kinase Tracers are based on ATP-competitive kinase inhibitors, making them suitable for detection of any compounds that bind to the ATP site. Inhibitors that bind the ATP site include both Type I kinase inhibitors, which bind solely to the ATP site, and Type II inhibitors (e.g., Gleevec®/Imatinib, Sorafenib, BIRB-796), which bind to both the ATP site and a second site often referred to as the allosteric site. […] For 10 point titrations, 3-fold serial dilutions are conducted from the starting concentration (see Table 2 below). [table] All Kinase/Antibody Mixtures are diluted to a 2× working concentration in the specified kinase buffer. The 4× AlexaFluor labeled Tracer is prepared in Kinase Buffer. Bar-coded, low volume, white 384-well plate (Greiner Cat. #784207) […] 2. 3.84 μL—Kinase Buffer […] 4. 4.0 μL—4× Tracer 5. 30-second plate shake 6. 60-minute incubation at room temperature 7. […] The LanthaScreen Eu Kinase Binding Assay data is analyzed using the equations in Table 3 for each set of data points. [table] Data generated were plotted using the graphing software XLfit from IDBS. The dose response curve is curve fit to model number 205.
Background: In TR-FRET formats the signal depends on donor and acceptor labels being close together.

[3] abbreviates: read-out: RD-SMAD reporter activity.

The structures appear in SMILES notation. Like-named read-outs stand apart in the source and are kept apart here. Where only a bound is given, the exact number is not on record here.

Chain of ALK-5 (P36897 34-503): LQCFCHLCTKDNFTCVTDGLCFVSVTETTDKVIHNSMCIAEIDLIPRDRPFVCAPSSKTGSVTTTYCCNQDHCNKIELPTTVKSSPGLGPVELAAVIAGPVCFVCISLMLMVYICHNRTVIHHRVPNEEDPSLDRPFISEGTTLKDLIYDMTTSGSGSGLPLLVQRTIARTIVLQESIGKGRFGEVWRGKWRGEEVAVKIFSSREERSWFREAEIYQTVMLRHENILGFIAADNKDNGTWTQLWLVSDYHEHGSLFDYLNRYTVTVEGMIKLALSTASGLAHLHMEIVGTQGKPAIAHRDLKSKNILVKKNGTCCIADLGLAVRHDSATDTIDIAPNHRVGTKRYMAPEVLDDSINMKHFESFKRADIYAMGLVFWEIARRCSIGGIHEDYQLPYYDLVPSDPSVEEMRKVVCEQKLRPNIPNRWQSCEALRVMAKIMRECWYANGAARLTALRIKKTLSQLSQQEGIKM

Regarding `COC(=O)c1ccc2c(c1)NC(=O)/C2=C(\Nc1ccc(N(C)C(=O)CN2CCN(C)CC2)cc1)c1ccccc1` [Nintedanib, reference compound], the “LogM IC50 αSMA” value in series [1] (donor IPF05) was −6.5 LogM; in series [1] (donor IPF06) it was −6.3 LogM; in series [1] (donor IPF08), −6.4 LogM. Moreover, the entries for the “Max PIN (%)” value in series [1] (donor IPF05), in series [1] (donor IPF06) and in series [1] (donor IPF08) were 92.1%, 86.8% and 88.2%, respectively.
Turning to `Cc1cccc2c(Nc3ccnc(Nc4ccc(N5CCCCC5)cc4)n3)cnnc12` [EX-55, N4-(8-methylcinnolin-4-yl)-N2-(4-(piperidin-1-yl)phenyl)pyrimidine-2,4-diamine], the IC50 was < 100 nM in series [2] (setting [3]) and < 10 nM on ALK-5. The “Kinase Selectivity: ALK2 IC50/ ALK5 IC50” value on ALK-5 was “(++) (10<ALK2/ALK5<100=[++])”.
For `CN1CCN(c2ccc(Nc3nccc(Nc4cnnc5c(Cl)cccc45)n3)cc2)CC1` [EX-49, N4-(8-chlorocinnolin-4-yl)-N2-(4-(4-methylpiperazin-1-yl)phenyl)pyrimidine-2,4-diamine], in that order: < 100 nM, < 10 nM and “(++) (10<ALK2/ALK5<100=[++])”.
For `Clc1cccc2c(Nc3ccnc(Nc4ccc(N5CCNCC5)cc4)n3)cnnc12` [EX-50, N4-(8-chlorocinnolin-4-yl)-N2-(4-(piperazin-1-yl)phenyl)pyrimidine-2,4-diamine], in that order: 100 to 1000 nM, < 10 nM and “(++) (10<ALK2/ALK5<100=[++])”.
For `Cc1cccc2c(Nc3ccnc(Nc4ccc(F)c(N5CCOCC5)c4)n3)cnnc12` [EX-38, N2-(4-fluoro-3-morpholinophenyl)-N4-(8-methylcinnolin-4-yl)pyrimidine-2,4-diamine], in that order: < 100 nM, 10 to 100 nM and “(++) (10<ALK2/ALK5<100=[++])”.
As to `Cc1cccc2c(Nc3ccnc(Nc4ccc(N5CCNCC5)cc4F)n3)cnnc12` [EX-22, N2-(2-fluoro-4-(piperazin-1-yl)phenyl)-N4-(8-methylcinnolin-4-yl)pyrimidine-2,4-diamine], the IC50 in series [2] (setting [3]) is < 100 nM. In addition, at ALK-5, the “Kinase Selectivity: ALK2 IC50/ ALK5 IC50” value was “(+++) (100≤ALK2/ALK5=[+++])” and the IC50 was < 10 nM.
For `Cc1cccc2c(Nc3ccnc(Nc4ccc(N5CCN(C)CC5)cc4)n3)cnnc12` [EX-33, N4-(8-methylcinnolin-4-yl)-N2-(4-(4-methylpiperazin-1-yl)phenyl)pyrimidine-2,4-diamine], in that order: < 100 nM, “(++) (10<ALK2/ALK5<100=[++])” and < 10 nM.
For `Cc1cccc2c(Nc3ccnc(Nc4ccc(N5CCN(CC(F)(F)F)CC5)cc4)n3)cnnc12` [EX-17, N4-(8-methyl-cinnolin-4-yl)-N2-(4-(4-(2,2,2-trifluoroethyl)-piperazin-1-yl)phenyl)-pyrimidine-2,4-diamine], in that order: < 100 nM, “(++) (10<ALK2/ALK5<100=[++])” and < 10 nM.
For `Cc1cccc2c(Nc3ccnc(Nc4cc(F)cc(CC5CCN(C)CC5)c4)n3)cnnc12` [EX-43, N2-(3-fluoro-5-((1-methylpiperidin-4-yl)methyl)phenyl)-N4-(8-methylcinnolin-4-yl)pyrimidine-2,4-diamine], in that order: 100 to 1000 nM, “(+) (≤10=[+])” and < 10 nM.
As for `Cc1cc(F)cc2c(Nc3ccnc(Nc4ccc(N5CCNCC5)cc4)n3)cnnc12` [EX-15, N4-(6-fluoro-8-methyl-cinnolin-4-yl)-N2-(4-(piperazin-1-yl)phenyl)-pyrimidine-2,4-diamine], the IC50 in series [2] (setting [3]) was < 100 nM; at ALK-5, < 10 nM. In addition, the “Kinase Selectivity: ALK2 IC50/ ALK5 IC50” value on ALK-5 is “(++) (10<ALK2/ALK5<100=[++])”.
For `Cc1cccc2c(Nc3ccnc(Nc4cccc(CN5CCOCC5)c4)n3)cnnc12` [EX-47, N4-(8-methylcinnolin-4-yl)-N2-(3-(morpholinomethyl)phenyl)pyrimidine-2,4-diamine], in that order: < 100 nM, < 10 nM and “(++) (10<ALK2/ALK5<100=[++])”.
In the case of `Cc1cccc(-c2nn3c(c2-c2ccnc4ccc(C(N)=O)cc24)CCC3)n1` [Galunisertib, reference compound], in series [1] (donor IPF05), the “LogM IC50 αSMA” value was −5.7 LogM and the “Max PIN (%)” value was found to be 100.8%. In series [1] (donor IPF06), the “LogM IC50 αSMA” value is −5.9 LogM, the “Max PIN (%)” value is recorded as 104.4% and the “potentially toxic (>25% loss of nuclei)” value is >−5.5. Moreover, in series [1] (donor IPF08), the “LogM IC50 αSMA” value is −5.9 LogM and the “Max PIN (%)” value is given as 99.6%. Moreover, in series [2] (control compounds, read-out: RDSR reporter activity), the IC50 is ~365 nM.
With `Cc1cccc2c(Nc3ccnc(Nc4cc(CC5CCNCC5)ccc4F)n3)cnnc12` [EX-16, N2-(2-fluoro-5-(piperidin-4-ylmethyl)-phenyl)-N4-(8-methyl-cinnolin-4-yl)-pyrimidine-2,4-diamine], the IC50 lay in the range of 100 to 1000 nM in series [2] (setting [3]) and 10 to 100 nM on ALK-5. Moreover, at ALK-5, the “Kinase Selectivity: ALK2 IC50/ ALK5 IC50” value was “(++) (10<ALK2/ALK5<100=[++])”.
For `Cc1cccc2c(Nc3ccnc(Nc4ccc(N5CCN(C)CC5)cc4F)n3)cnnc12` [EX-21, N2-(2-fluoro-4-(4-methyl-piperazin-1-yl)phenyl)-N4-(8-methyl-cinnolin-4-yl)-pyrimidine-2,4-diamine], in that order: 100 to 1000 nM, 10 to 100 nM and “(++) (10<ALK2/ALK5<100=[++])”.
